# Experimental data as given in US7897620B2, “Methods of using anti-inflammatory compounds” (Cambridge Enterprise Limited, priority 2007, dated 2011).
# Marks after values point to notes of the source that are not given here.
# What was measured:
# [1] = test system: S. Typhinurium (TA 102, TA98 and TA 100); test: AMES test, revertant colony formation; assay type: cell-based; conditions: for Revertant colony formation TA98 + S9: TA98 with S9, top dose 5 mg/ml; for Revertant colony formation TA98: TA98 without S9, top dose 5 mg/ml; for Revertant colony formation TA100 + S9: TA100 with S9 rat liver microsomal system, top dose 5 mg/ml; for Revertant colony formation TA100: TA100 without S9, top dose 5 mg/ml; for Revertant colony formation TA102 + S9: TA102 with S9, top dose 5 mg/ml; for Revertant colony formation TA102: TA102 without S9, top dose 5 mg/ml
# Protocol: The five compounds were subjected to a standard AMES test to assess likely genotoxicity. Three His-auxotroph strains of S. Typhinurium (TA 102, TA98 and TA 100) were treated with each of the compounds at 5 concentrations (up to 5 mg/ml) in the presence and absence of S9 rat liver microsomal metabolising system. The number of revertant colonies was then determined by plating on trace-His minimal media.
# [2] = test system: target receptor (site of specific interaction of BN83250) (Homo sapiens); test: Competition for specific binding of [3H]-BN83250 to human myelomonocytic cell line; conditions: competition binding curve, non-linear modelling
# Protocol: The general pharmacology of the five compounds was assessed, both against the specific target receptor, and against a wide variety of other receptors, many related in structure to the target receptor. Specific binding to the target receptor was assessed by competition for the binding of [^3H]-BN83250 (BN83250 is (S)-3-(2′,2′-dimethyldodecanoylamino)-caprolactam; Fox et al. J Med Chem. […]; 48(3):867-74; an agent known to bind to the same target receptor as the lactam BSCIs disclosed here). Binding to non-target receptors was assessed by competition for the binding of various specific radioligands for other receptors which are well known in the art.
# For specific binding the human myelomonocytic cell line was resuspended in binding buffer (20 mM HEPES, 150 mM NaCl, pH 7.4; 10^6 cells per reaction) at 4° C. in the presence of 10 nM [^3]-BN83250 (from 1 μM stock in 100% ethanol; 30 Ci/mmol) and various competitors (1% DMSO maximum vehicle concentration). Reactions were incubated for 2 hours on ice, then filtered through GF/C filters pre-soaked in 0.5% polyethyeneimine. Unbound material was washed away with 5×5 ml ice cold washing buffer (20 mM HEPES, 150 mM NaCl, pH 7.4) under a slow vacuum.
# Competition for the specific [^3H]-BN83250 with compounds (I′), (II) and (V) was then determined at various concentrations from 1 μM to 10 μM. Compounds (III) and (IV) were not examined in these experiments.
# Non-linear modelling was then applied to the competition binding curves for the various compounds, in order to compare their properties as agents binding to the target receptor (defined as the site of specific interaction of BN83250).
# [3] = test system: IL-8 induced neutrophil migration; test: ChemoTx transwell migration assay, IL-8 induced migration of neutrophils; assay type: cell-based; conditions: maximal dose of chemoattractant, read-out: ED50 IL-8 neutrophils
# Protocol: In principle, this assay consists of two chambers separated by a porous membrane. The chemoattractant is placed in the lower compartment and the cells are placed in the upper compartment. After incubation for a period at 37° C. the cells move towards the chemoattractant, and the number of cells in the lower compartment is proportional to the chemoattractant activity (relative to a series of controls).
# Next, the chemoattractant solution to be placed in the lower compartment is prepared. For example, MCP-1 is diluted in GBSS+BSA to give a final concentration of 25 ng/ml. This is divided into two pots, as for the cell suspension. To one pot, the test compound is added to the same final concentration as was added to the cell suspension, while to the other pot an equal volume of GBSS+BSA plus vehicle as appropriate (e,g. not more than 1% DMSO) is added. Alternatively, other chemokines may be used (SDF-1α at 7.5 ng/ml; RANTES at 50 ng/ml; IL-8 at 10 ng/ml using neutrophils as the target cell population). In each case it is important to determine (in a separate experiment) the concentration of each chemokine which causes maximal stimulation of migration of the chosen target leukocyte population. […]
# The number of cells migrated into the lower chamber under each condition can then be determined by a number of methods, including direct counting, labelling with fluorescent or radioactive markers or through the use of a vital dye. […] 3 μl of stock MTT solution are added to each well, and then the plate is incubated at 37° C. for 1-2 hours during which time dehydrogenase enzymes within the cells convert the soluble MTT to an insoluble blue formazan product that can be quantified spectrophotometrically. […]
# At the end of this incubation, the liquid is carefully removed from the lower chambers, taking care not to disturb the precipitated formazan product. After allowing to air dry briefly, 20 μl of DMSO is added to each lower chamber to solubilise the blue dye, and absorbance at 595 nm is determined using a 96-well plate reader. […]
# target receptor (site of specific interaction of BN83250) (Homo sapiens), sequence (P30874 whole entry): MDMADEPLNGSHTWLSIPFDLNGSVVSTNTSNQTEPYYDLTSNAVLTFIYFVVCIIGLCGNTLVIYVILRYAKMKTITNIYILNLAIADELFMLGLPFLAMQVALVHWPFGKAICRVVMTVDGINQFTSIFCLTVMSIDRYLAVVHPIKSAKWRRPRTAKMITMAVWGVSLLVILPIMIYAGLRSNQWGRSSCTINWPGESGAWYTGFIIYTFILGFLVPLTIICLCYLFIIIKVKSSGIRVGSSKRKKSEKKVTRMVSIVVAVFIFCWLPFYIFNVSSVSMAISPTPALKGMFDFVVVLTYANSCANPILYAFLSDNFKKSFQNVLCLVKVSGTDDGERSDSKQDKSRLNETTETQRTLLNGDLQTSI
Structure (SMILES),Revertant colony formation TA98 + S9 [1],Revertant colony formation TA98 [1],Revertant colony formation TA100 + S9 [1],Revertant colony formation TA100 [1],Revertant colony formation TA102 + S9 [1],Revertant colony formation TA102 [1],Hill slope [2],EC50 [3]
"CC(C)(C)S(=O)(=O)N[C@H]1CCCCNC1=O [(IV), 3-(1′,1′-dimethylethylsulfonylamino)-caprolactam]",0.90,0.82,0.90,0.89,0.88,0.85,,
"CC(C)(C)C(=O)N[C@H]1CCCNC1=O [Compound (I′), 3-(2′,2′-dimethylpropanoylamino)-tetrahydropyridin-2-one]",1.23,2.00**,0.95,0.97,0.93,0.82,−1.0,0.6 nM
"O=C1NCCCC[C@@H]1NC(=O)C12CC3CC(CC(O)(C3)C1)C2 [(V), 3-(3′-hydroxyadamantyl-1-carbonylamino)-caprolactam]",0.91,0.96,0.88,0.78,1.09,0.93,−0.5,0.5 nM
"O=C1NCCCC[C@@H]1NC(=O)C12CC3CC(CC(C3)C1)C2 [(II), 3-(adamantane-1-carbonylamino)-caprolactam]",0.60*,0.58*,0.73,0.59*,0.93,0.50*,−0.5,0.6 nM
